% of control and % of inhibition data for seven compounds are collected here from ChEMBL document CHEMBL5465560, “Selectivity Literature for EUbOPEN Chemogenomic Library” (2024).

Experiment [1] has as its target T1, Mitogen-activated protein kinase kinase kinase kinase 3 (Homo sapiens) (UniProt Q8IVH8).
T1 sequence (whole entry): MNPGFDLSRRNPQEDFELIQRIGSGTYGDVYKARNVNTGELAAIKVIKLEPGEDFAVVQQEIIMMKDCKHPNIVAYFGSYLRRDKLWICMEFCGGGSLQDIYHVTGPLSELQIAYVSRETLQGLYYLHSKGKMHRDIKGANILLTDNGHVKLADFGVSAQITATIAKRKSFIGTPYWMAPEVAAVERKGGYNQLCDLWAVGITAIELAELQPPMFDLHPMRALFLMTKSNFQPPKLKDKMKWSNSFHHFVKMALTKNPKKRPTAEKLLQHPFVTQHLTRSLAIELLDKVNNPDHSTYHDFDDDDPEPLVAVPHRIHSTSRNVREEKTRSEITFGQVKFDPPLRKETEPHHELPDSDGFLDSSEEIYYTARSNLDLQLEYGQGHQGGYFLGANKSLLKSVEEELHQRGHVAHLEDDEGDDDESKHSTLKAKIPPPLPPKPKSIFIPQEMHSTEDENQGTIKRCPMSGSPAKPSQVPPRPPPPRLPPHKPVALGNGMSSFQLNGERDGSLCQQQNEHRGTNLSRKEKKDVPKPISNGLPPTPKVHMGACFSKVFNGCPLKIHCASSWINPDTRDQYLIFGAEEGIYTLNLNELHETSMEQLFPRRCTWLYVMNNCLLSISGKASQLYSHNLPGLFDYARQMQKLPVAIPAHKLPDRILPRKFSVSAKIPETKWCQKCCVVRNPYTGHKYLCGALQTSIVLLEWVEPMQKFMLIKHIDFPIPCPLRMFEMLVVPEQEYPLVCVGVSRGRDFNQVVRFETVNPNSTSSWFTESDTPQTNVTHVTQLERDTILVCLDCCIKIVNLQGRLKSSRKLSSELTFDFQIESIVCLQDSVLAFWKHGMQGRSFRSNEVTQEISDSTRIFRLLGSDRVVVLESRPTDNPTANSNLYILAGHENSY
Particulars: at 10 µM.

In experiment [2] the target is T2, Serine/threonine-protein kinase DCLK3 (Homo sapiens) (UniProt Q9C098).
T2 sequence (whole entry): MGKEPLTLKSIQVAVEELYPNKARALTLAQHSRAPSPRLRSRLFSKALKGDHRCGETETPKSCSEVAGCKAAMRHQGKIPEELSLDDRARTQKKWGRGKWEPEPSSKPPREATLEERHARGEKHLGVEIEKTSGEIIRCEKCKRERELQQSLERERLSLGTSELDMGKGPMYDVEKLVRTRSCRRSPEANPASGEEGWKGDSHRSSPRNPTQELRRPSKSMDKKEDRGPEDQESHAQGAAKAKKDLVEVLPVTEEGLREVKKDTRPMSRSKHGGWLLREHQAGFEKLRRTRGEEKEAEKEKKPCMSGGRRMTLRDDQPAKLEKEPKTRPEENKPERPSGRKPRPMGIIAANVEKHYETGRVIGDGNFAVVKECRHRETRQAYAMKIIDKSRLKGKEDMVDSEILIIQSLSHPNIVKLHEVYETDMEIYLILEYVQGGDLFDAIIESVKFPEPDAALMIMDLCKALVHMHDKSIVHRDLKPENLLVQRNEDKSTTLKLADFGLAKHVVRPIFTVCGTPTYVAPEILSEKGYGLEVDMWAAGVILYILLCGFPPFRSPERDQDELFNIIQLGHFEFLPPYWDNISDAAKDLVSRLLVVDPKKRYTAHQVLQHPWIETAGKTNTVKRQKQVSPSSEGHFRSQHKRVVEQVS
Description: Selectivity interaction (KinomeScan (DiscoverX)) EUB0000666a DCLK3. Particulars: at 10 µM.

Experiment [3] has as its target T3, Serine/threonine-protein kinase Nek9 (Homo sapiens) (UniProt Q8TD19).
T3 sequence (whole entry): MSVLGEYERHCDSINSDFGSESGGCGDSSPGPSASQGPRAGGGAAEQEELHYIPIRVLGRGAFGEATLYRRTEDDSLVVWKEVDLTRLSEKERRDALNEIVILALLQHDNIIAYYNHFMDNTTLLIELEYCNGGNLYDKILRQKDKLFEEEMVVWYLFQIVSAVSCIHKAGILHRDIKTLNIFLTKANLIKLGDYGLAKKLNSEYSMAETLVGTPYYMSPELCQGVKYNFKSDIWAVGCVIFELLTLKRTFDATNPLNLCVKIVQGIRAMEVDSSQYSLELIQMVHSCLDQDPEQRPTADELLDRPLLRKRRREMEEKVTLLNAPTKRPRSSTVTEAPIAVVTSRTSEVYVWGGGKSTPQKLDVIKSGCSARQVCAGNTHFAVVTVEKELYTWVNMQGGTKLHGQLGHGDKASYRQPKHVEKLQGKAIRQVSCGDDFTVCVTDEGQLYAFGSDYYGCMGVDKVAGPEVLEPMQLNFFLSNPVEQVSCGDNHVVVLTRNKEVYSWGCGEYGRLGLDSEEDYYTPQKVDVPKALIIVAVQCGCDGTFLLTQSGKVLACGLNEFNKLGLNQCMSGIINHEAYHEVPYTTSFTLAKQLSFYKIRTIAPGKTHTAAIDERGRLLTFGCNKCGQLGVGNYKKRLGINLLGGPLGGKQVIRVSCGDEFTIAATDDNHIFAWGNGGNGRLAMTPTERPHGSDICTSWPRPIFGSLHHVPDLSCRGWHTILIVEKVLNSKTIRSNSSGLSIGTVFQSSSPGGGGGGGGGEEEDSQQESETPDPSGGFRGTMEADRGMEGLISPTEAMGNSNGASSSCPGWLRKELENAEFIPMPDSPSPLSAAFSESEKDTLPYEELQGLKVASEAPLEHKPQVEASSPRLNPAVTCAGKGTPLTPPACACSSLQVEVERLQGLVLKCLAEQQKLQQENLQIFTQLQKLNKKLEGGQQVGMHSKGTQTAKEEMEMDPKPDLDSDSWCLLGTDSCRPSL
Description: Selectivity interaction (ActivX KiNativ screen (ex vivo kinase selectivity in human PBMCs)) EUB0001619a NEK9. Particulars: PBMC, at 1 µM. The experiment is classed as cell-based.

Experiment [4] addresses Tyrosine-protein kinase ABL2 (Homo sapiens, UniProt P42684). Kind of experiment: Selectivity interaction (Kinase panel (Invitrogen)) EUB0000639a ABL2. Particulars: at 200 nM.
Experiment [5] deals with Proto-oncogene tyrosine-protein kinase receptor Ret (Homo sapiens, UniProt P07949). Kind of experiment: Selectivity interaction (Kinase panel (Invitrogen)) EUB0000639a RET. Particulars: at 200 nM.
Proto-oncogene tyrosine-protein kinase receptor Ret, sequence (P07949 whole entry): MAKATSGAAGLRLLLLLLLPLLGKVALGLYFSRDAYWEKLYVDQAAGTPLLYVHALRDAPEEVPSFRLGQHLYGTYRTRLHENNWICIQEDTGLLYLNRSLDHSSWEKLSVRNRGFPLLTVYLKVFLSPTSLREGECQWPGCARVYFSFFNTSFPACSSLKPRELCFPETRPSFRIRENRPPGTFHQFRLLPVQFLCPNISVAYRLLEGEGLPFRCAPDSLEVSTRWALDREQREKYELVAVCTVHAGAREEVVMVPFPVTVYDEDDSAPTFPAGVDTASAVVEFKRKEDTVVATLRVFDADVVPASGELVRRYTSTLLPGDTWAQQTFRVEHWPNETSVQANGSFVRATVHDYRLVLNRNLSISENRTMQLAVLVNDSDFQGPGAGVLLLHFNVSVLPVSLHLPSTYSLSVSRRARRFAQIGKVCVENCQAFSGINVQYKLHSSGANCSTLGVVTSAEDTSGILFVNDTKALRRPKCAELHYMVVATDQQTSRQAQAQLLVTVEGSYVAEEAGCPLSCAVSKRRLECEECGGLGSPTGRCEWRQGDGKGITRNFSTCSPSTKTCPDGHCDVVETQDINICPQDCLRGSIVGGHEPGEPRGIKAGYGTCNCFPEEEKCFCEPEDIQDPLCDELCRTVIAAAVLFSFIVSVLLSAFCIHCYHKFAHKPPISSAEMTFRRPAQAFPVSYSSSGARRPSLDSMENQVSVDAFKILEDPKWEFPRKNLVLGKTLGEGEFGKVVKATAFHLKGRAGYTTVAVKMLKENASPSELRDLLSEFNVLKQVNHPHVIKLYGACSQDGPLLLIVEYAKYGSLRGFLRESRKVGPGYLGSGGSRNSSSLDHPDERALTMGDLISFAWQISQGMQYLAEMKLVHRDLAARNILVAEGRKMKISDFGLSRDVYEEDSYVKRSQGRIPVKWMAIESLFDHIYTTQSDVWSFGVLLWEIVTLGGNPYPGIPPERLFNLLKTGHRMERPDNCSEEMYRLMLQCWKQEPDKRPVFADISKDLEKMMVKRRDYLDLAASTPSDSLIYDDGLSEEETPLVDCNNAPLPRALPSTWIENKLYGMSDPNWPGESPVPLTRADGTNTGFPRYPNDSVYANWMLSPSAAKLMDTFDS
Experiment [6] concerns the target Tyrosine-protein kinase Srms (Homo sapiens) (UniProt Q9H3Y6). Particulars: at 10 µM.
Experiment [7] has as its target Serine/threonine-protein kinase 38 (Homo sapiens) (UniProt Q15208). Kind of experiment: Selectivity interaction (KinomeScan (DiscoverX)) EUB0001049a STK38. Particulars: at 1 µM.
The target in experiment [8] is Glycogen synthase kinase-3 alpha (Homo sapiens, UniProt P49840). Description: Selectivity interaction (KinomeScan (DiscoverX)) EUB0000695a GSK3A. Particulars: at 100 nM.
Glycogen synthase kinase-3 alpha, sequence (P49840 2-483 limits assumed): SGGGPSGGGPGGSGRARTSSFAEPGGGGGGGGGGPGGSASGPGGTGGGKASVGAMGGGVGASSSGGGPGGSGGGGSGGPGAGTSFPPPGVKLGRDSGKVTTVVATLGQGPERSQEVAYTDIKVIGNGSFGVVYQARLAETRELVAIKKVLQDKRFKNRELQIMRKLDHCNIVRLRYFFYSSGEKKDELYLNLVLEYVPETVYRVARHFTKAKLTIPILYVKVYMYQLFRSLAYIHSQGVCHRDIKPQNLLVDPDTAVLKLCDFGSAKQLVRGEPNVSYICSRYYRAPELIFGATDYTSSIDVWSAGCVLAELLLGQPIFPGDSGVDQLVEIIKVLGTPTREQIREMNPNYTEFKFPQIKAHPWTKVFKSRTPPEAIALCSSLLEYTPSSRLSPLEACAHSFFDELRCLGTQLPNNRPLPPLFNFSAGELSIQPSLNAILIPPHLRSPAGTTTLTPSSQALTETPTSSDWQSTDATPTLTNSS

Tyrosine-protein kinase Srms (Homo sapiens), sequence (Q9H3Y6 whole entry): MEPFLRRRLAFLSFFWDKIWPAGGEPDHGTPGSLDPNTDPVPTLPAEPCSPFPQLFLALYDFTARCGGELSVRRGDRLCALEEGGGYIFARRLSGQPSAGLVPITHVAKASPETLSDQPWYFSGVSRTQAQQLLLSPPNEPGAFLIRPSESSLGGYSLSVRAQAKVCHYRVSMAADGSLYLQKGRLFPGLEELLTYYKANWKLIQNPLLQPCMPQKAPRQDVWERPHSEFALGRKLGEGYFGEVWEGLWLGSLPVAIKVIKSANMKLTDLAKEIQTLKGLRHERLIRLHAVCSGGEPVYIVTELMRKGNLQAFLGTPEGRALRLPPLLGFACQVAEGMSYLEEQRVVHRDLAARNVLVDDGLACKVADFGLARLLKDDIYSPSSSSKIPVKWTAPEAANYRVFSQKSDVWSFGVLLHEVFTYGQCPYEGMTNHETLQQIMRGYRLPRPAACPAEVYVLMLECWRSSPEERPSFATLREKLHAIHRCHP
Serine/threonine-protein kinase 38 (Homo sapiens), sequence (Q15208 2-465 limits assumed): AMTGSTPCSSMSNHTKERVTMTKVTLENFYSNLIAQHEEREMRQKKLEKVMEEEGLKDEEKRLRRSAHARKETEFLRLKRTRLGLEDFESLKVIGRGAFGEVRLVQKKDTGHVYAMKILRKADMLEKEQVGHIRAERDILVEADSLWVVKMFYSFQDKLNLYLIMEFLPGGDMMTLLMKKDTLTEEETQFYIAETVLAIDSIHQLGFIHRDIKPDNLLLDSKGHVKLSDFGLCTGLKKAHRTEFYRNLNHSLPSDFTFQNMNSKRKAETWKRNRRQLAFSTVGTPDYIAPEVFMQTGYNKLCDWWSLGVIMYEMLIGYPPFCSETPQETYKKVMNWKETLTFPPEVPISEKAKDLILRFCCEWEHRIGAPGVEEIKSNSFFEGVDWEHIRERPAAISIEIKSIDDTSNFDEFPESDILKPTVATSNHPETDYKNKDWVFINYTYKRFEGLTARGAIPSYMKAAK
Tyrosine-protein kinase ABL2, sequence (P42684 whole entry): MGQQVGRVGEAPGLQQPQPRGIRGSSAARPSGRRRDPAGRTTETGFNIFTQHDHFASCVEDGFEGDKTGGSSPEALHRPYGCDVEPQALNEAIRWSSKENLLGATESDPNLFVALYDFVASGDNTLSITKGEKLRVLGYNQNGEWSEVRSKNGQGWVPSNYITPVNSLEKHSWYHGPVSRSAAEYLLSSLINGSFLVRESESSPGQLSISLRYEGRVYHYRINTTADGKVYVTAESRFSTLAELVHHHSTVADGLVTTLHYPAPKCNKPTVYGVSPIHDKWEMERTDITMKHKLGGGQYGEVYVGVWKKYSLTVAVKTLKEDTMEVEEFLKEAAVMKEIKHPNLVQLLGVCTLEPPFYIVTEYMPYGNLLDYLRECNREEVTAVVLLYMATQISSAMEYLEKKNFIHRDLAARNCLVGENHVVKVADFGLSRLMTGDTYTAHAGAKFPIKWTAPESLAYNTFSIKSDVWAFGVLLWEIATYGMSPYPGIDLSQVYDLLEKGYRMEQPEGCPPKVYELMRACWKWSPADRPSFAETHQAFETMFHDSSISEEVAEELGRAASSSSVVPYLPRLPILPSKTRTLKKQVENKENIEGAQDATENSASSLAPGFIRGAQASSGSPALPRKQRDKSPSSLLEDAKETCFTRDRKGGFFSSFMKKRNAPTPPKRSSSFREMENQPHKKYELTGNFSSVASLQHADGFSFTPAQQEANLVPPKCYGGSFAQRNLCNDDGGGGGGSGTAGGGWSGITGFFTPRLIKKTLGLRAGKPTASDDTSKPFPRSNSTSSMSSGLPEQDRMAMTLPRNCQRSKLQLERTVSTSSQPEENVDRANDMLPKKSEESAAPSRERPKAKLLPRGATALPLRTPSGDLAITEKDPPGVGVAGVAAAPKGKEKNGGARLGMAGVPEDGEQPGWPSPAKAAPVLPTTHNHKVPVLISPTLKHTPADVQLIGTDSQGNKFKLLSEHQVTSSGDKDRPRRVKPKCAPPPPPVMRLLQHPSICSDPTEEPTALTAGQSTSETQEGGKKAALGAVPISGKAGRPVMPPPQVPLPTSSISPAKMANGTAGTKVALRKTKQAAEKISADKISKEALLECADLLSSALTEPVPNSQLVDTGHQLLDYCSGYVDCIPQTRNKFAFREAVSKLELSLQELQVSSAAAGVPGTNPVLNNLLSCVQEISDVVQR

In experiment [1], `Cc1cc([C@@H](C)Nc2ccccc2C(=O)O)c2nc(N3CCOCC3)cc(=O)n2c1` [AZD-6482] had a % of control of 88%.

As for `O=C(NOC[C@H](O)CO)c1ccc(F)c(F)c1Nc1ccc(I)cc1F`, the % of control in experiment [2] is 100%.

With `N#Cc1cccc(-c2c[nH]c3ncnc(N4CCOCC4)c23)c1`, the % of inhibition in experiment [3] stood at 3%.

For `CC[C@@H]1[C@H](F)C(=O)N[C@@H]1COc1nccc2cc(C(N)=O)c(OC)cc12` [ZIMLOVISERTIB], the % of inhibition is -0.467% in experiment [4] and 58.9% in experiment [5].

Compound `CCN(CC)CCCCNc1ncc2cc(-c3cc(OC)cc(OC)c3)c(NC(=O)NC(C)(C)C)nc2n1` showed a % of control in experiment [6] of 100%.

In experiment [7], `COc1cc(Nc2nc(C)cc(-c3cnn4nc(OC)ccc34)n2)cc(C(F)(F)F)c1` showed a % of control of 90%.

For `Cc1cc(F)c(C(=O)Nc2cccc(-c3nncn3C(C)C)n2)cc1-n1cnc(C2CC2)c1`, the % of control in experiment [8] stood at 80%.
